The source of these data is patent US12599672B2, “KRAS proteolysis targeting chimeras” (PAQ Therapeutics Inc., priority 2023, dated 2026).

Common to all, as to type: cell-based
One experiment addresses T1, KRAS (Homo sapiens, UniProt P01116).
T1 construct: endogenous in cells; host or cells: KE39 (KRAS amplified) cells
Nature of the experiment: KRASamp MSD assay. The conditions noted are these: KE39 (KRAS amplified) cells, treated with test compounds for 24 hr, MSD readout of KRAS degradation. The gist of the method: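 Degradation DC50 derived by curve fitting, with KRAS levels quantified by MSD electrochemiluminescence (capture/detection antibodies, recombinant WT KRAS standard). Lysates prepared from KE39 cells (KRAS amplified) exposed to test compounds for 24 hr.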

The next experiment has as its target T2, KRAS G12V (Homo sapiens, UniProt P01116, G12V).
T2 construct: SW620-KRAS (G12V)-HiBit-KI cell (Pharmaron); host or cells: SW620-KRAS (G12V)-HiBit-KI cells (HiBiT knock-in at the endogenous KRAS locus)
As to the kind of experiment: KRAS G12V HiBit assay. The conditions noted are these: SW620-KRAS (G12V)-HiBit-KI cells, compound treatment for 24 hours. The gist of the method: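 Luminescence from lytic Nano-Glo HiBiT detection with LgBiT read KRAS G12V levels after 24 h compound exposure. Dilutions were 10-point, 3-fold, from a 0.3 mM DMSO stock. Degradation activity was normalised to cells given 0.1% DMSO alone.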
On the technique in general: HiBiT is a short tag that completes a luciferase, so light tracks the accessible tagged protein.

For a further experiment, the target named is T3, KRAS G12D (Homo sapiens, UniProt P01116, G12D).
T3 construct: AsPc-1-KRAS (G12D)-HiBit-KI cell (Pharmaron); host or cells: AsPc-1-KRAS (G12D)-HiBit-KI cells (HiBiT knock-in at the endogenous KRAS locus)
T3 sequence (P01116 1-188 isoform P01116-2 G12D): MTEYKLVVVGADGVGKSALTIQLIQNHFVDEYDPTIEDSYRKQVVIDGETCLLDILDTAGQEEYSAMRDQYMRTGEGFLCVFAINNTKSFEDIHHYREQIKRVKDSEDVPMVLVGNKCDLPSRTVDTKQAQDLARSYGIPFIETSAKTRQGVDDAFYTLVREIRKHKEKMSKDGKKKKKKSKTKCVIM
As to the kind of experiment: KRAS G12D HiBit assay. The following applies: AsPc-1-KRAS (G12D)-HiBit-KI cell, compound treatment for 24 hours; for DC50: absolute DC50. The gist of the method:
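HiBiT luminescence, detected by adding lytic buffer, substrate and LgBiT protein, served as the KRAS G12D read-out. Compounds, serially diluted 3-fold over 10 points from 0.3 mM DMSO stock, were on cells for 24 h; percent inhibition normalized to cells given 0.1% DMSO only.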

The mark [1] stands for this setting: numeric bounds given in place of class symbols.

T1 sequence (P01116 1-188 isoform P01116-2): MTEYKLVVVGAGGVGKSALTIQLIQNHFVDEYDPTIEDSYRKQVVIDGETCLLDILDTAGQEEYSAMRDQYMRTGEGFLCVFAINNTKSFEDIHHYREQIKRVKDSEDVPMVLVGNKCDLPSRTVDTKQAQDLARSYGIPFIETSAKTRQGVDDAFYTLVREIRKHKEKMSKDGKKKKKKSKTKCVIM
T2 sequence (P01116 1-188 isoform P01116-2 G12V): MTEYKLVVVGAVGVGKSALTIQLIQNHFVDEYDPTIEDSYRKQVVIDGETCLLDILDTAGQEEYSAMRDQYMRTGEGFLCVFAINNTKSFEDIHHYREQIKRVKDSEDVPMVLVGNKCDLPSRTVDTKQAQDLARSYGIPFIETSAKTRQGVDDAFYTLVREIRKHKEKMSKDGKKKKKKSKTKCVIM

Regarding `C#Cc1c(F)ccc2cc(O)cc(-c3ncc4c(N5CCC[C@@](C)(O)C5)nc(OC[C@@]56CCCN5[C@H](COC(=O)N5CCC57CCN(C5CCN(c8ccc9c(c8)n(C)c(=O)n9C8CCC(=O)NC8=O)CC5)CC7)CC6)nc4c3F)c12` (stereo partly drawn) [Compound 326, ((3S,7aS)-7a-(((7-(8-ethynyl-7-fluoro-3-hydroxynaphthalen-1-yl)-8-fluoro-4-((R)-3-hydroxy-3-methylpiperidin-1-yl)pyrido[4,3-d]pyrimidin-2-yl)oxy)methyl)hexahydro-1H-pyrrolizin-3-yl)methyl 7-(1-(1-(2,6-dioxopiperidin-3-yl)-3-methyl-2-oxo-2,3-dihydro-1H-benzo[d]imidazol-5-yl)piperidin-4-yl)-1,7-diazaspiro[3.5]nonane-1-carboxylate], the DC50 on KRAS was no less than 10 nM; at KRAS G12V (class symbols), greater than 100 nM; on KRAS G12D (setting [1]), greater than 100 nM.
In the case of `C#Cc1c(F)ccc2cc(O)cc(-c3ccc4c(N5CCC[C@@](C)(O)C5)nc(OCC5(CN6CCN(CC7CCN(c8ccc9c(c8)n(C)c(=O)n9C8CCC(=O)NC8=O)CC7)CC6)CC5)nc4c3F)c12` (stereo partly shown) [Compound 11], the DC50 at KRAS is 1 to 10 nM; on KRAS G12V (class symbols), less than 10 nM; on KRAS G12D (class symbols), greater than 300 nM.
`CCc1c(F)ccc2cc(O)cc(-c3ncc4c(N5CCC[C@@](C)(O)C5)nc(OC[C@]56CCCN5[C@H](COC(=O)N5CCC(COc7ccc8c(c7)n(C)c(=O)n8C7CCC(=O)NC7=O)CC5)CC6)nc4c3F)c12` (stereo partly drawn) [Compound 301, ((3S,7aR)-7a-(((7-(8-ethyl-7-fluoro-3-hydroxynaphthalen-1-yl)-8-fluoro-4-((R)-3-hydroxy-3-methylpiperidin-1-yl)pyrido[4,3-d]pyrimidin-2-yl)oxy)methyl)hexahydro-1H-pyrrolizin-3-yl)methyl 4-(((1-(2,6-dioxopiperidin-3-yl)-3-methyl-2-oxo-2,3-dihydro-1H-benzo[d]imidazol-5-yl)oxy)methyl)piperidine-1-carboxylate]: the DC50 on KRAS is less than 1 nM; at KRAS G12V (class symbols) it was less than 10 nM; at KRAS G12D (class symbols) it was less than 100 nM.
Take `CCc1c(F)ccc2cc(O)cc(-c3ncc4c(N5CCC[C@@](C)(O)C5)nc(OC[C@@]56CCCN5[C@H](COC(=O)N5CCC(CN7CCC(c8cc9c(cc8F)n(C8CCC(=O)NC8=O)c(=O)n9C)CC7)CC5)CC6)nc4c3F)c12` (stereo partly drawn) [Compound 101, ((35,7aS)-7a-(((7-(8-Ethyl-7-fluoro-3-hydroxynaphthalen-1-yl)-8-fluoro-4-((R)-3-hydroxy-3-methylpiperidin-1-yl)pyrido[4,3-d]pyrimidin-2-yl)oxy)methyl)hexahydro-1H-pyrrolizin-3-yl)methyl 4-((4-(1-(2,6-dioxopiperidin-3-yl)-6-fluoro-3-methyl-2-oxo-2,3-dihydro-1H-benzo[d]imidazol-5-yl)piperidin-1-yl)methyl) piperidine-1-carboxylate]: the DC50 at KRAS is less than 1 nM; on KRAS G12V (class symbols), less than 10 nM; on KRAS G12D (class symbols) it was less than 100 nM. The Dmax at KRAS G12D (class symbols) was greater than 50%.
For `CCc1c(F)ccc2cc(O)cc(-c3ncc4c(N5CCC[C@@](C)(O)C5)nc(OC[C@@]56CCCN5[C@@H](COC(=O)N5CCC(CN7CCC(c8cc9c(cc8F)n(C8CCC(=O)NC8=O)c(=O)n9C)CC7)CC5)CC6)nc4c3F)c12` (stereo partly drawn) [Compound 426, ((3R,7aS)-7a-(((7-(8-ethyl-7-fluoro-3-hydroxynaphthalen-1-yl)-8-fluoro-4-((R)-3-hydroxy-3-methylpiperidin-1-yl)pyrido[4,3-d]pyrimidin-2-yl)oxy)methyl)hexahydro-1H-pyrrolizin-3-yl)methyl 4-((4-(1-(2,6-dioxopiperidin-3-yl)-6-fluoro-3-methyl-2-oxo-2,3-dihydro-1H-benzo[d]imidazol-5-yl)piperidin-1-yl)methyl)piperidine-1-carboxylate], the results for the DC50 at KRAS, on KRAS G12V (class symbols) and at KRAS G12D (class symbols) were less than 1 nM, 10 to 100 nM and less than 100 nM, respectively.
`C#Cc1c(F)ccc2cc(O)cc(-c3ncc4c(N5CCC[C@@](C)(O)C5)nc(OCC5(CN6CCC7(CC6)CC(N6CCC(c8cccc9c8n(C)c(=O)n9C8CCC(=O)NC8=O)CC6)C7)CC5)nc4c3F)c12` (stereo partly shown) [Compound 64]: the DC50 was less than 1 nM at KRAS, less than 10 nM at KRAS G12V (class symbols) and less than 100 nM on KRAS G12D (class symbols).
As to `CCc1c(F)ccc2cc(O)cc(-c3ncc4c(N5CCC(F)(F)CC5)nc(OC[C@@]56CCCN5[C@H](COC(=O)N5CCC7(CC5)CC(N5CCC(c8ccc9c(c8)n(C)c(=O)n9C8CCC(=O)NC8=O)CC5)C7)CC6)nc4c3F)c12` (stereo partly drawn) [Compound 357, ((3S,7aS)-7a-(((4-(4,4-difluoropiperidin-1-yl)-7-(8-ethyl-7-fluoro-3-hydroxynaphthalen-1-yl)-8-fluoropyrido[4,3-d]pyrimidin-2-yl)oxy)methyl)hexahydro-1H-pyrrolizin-3-yl)methyl 2-(4-(1-(2,6-dioxopiperidin-3-yl)-3-methyl-2-oxo-2,3-dihydro-1H-benzo[d]imidazol-5-yl)piperidin-1-yl)-7-azaspiro[3.5]nonane-7-carboxylate], the DC50 at KRAS is 1 to 10 nM; at KRAS G12V (class symbols), greater than 100 nM; on KRAS G12D (setting [1]), greater than 100 nM.
In the case of `CCc1c(F)ccc2cc(O)cc(-c3ncc4c(N5CCC[C@@](C)(O)C5)nc(OC[C@@]56CCCN5[C@H](COC(=O)N5CC7(CCC(CN8CCC(c9ccc%10c(c9)n(C)c(=O)n%10C9CCC(=O)NC9=O)CC8)CC7)C5)CC6)nc4c3F)c12` (stereo partly drawn) [Compound 448, ((3S,7aS)-7a-(((7-(8-ethyl-7-fluoro-3-hydroxynaphthalen-1-yl)-8-fluoro-4-((R)-3-hydroxy-3-methylpiperidin-1-yl)pyrido[4,3-d]pyrimidin-2-yl)oxy)methyl)hexahydro-1H-pyrrolizin-3-yl)methyl 7-((4-(1-(2,6-dioxopiperidin-3-yl)-3-methyl-2-oxo-2,3-dihydro-1H-benzo[d]imidazol-5-yl)piperidin-1-yl)methyl)-2-azaspiro[3.5]nonane-2-carboxylate], the DC50 on KRAS is less than 1 nM; at KRAS G12V (class symbols), less than 10 nM; at KRAS G12D (class symbols), less than 100 nM.
`CCc1c(F)ccc2cc(O)cc(-c3ncc4c(N5CCC[C@@](C)(O)C5)nc(OC[C@@]56CCCN5[C@@H](COC(=O)N5CCC(CN7CCC(c8ccc9c(c8)n(C)c(=O)n9C8CCC(=O)NC8=O)CC7)CC5)CC6)nc4c3F)c12` (stereo partly drawn) [Compound 389, ((3R,7aS)-7a-(((7-(8-ethyl-7-fluoro-3-hydroxynaphthalen-1-yl)-8-fluoro-4-((R)-3-hydroxy-3-methylpiperidin-1-yl)pyrido[4,3-d]pyrimidin-2-yl)oxy)methyl)hexahydro-1H-pyrrolizin-3-yl)methyl 4-((4-(1-(2,6-dioxopiperidin-3-yl)-3-methyl-2-oxo-2,3-dihydro-1H-benzo[d]imidazol-5-yl)piperidin-1-yl)methyl)piperidine-1-carboxylate]: the DC50 was 1 to 10 nM at KRAS, greater than 70.5 nM at KRAS G12V (numeric bounds) and less than 100 nM on KRAS G12D (class symbols).
